pIC50: −log10 of the molar value.
Tests used:
Type in all cases: biochemical
Conditions in all cases: procedures of Example 14 (TR-FRET)
[1] = molecular target: JNK1 (Homo sapiens (Human), UniProt P45983); assay: JNK1 TR-FRET kinase assay (Example 14)
Procedure: (§1) 14.3. Active JNK 1, 2 and 3 TR-FRET Assay
(§2) (1) Assay buffer #1 with 0.0025% Tween and 1 mM DTT was prepared using JNK buffer stock solution.
(§3) (2) Assay buffer #2 with 0.025% BSA was prepared using the assay buffer #1.
(§4) (3) Test compound solution preparation: 5× compound solution was prepared using assay buffer #1 with 5% DMSO. The compound solution (10 μl/well) was added to a 384-well plate (Corning, Cat No. 3654).
(§5) (4) aJNK1, 2 or 3 preparation: aJNK stock (100 μg/ml) at −80° C. was thawed on ice and an aJNK (1.6 ng/ml) solution was prepared using assay buffer #2. The aJNK solution (20 μl/well) was added to the plate and the plate was shaken. The enzyme was incubated with the compound at RT for 10 min. (5) ATP/substrate solution preparation: ATP and substrate stocks were thawed on ice. 2.5×ATP/substrate (e.g., 25 μM or 2.5 mM ATP/50 nM EPIW-1) was prepared using assay buffer #1. The ATP/substrate (20 μl/well) was added to the plate and the plate was shaken. The plate was incubated at RT for 15 min. Note: In an exemplary assay, the final ATP concentration was about 1 mM. (6) EDTA preparation: 30 mM EDTA was prepared using 0.5M EDTA stock and assay buffer #1. The EDTA (10 μl/well) was added to the plate to quench the enzyme reaction and the plate was shaken well. (7) Detection reagent preparation: Eu-63 and SA-XL stocks were thawed on ice. 4× Eu-63/SA-XL (2 nM Eu-63/9.4 nM SA-XL) was prepared using JNK detection buffer. The Eu-63/SA-XL solution (20 μl/well) was added to the plate and the plate was shaken. The plate was incubated at RT for 1 hr before reading the plate on LJL using ratiometric method named HTRF.
(§6) 14.4. Coupled JNK 1, 2 and 3 TR-FRET Assay
(§7) (1) Assay buffer with 0.0025% Tween, 0.01% BSA, and 1 mM DTT was prepared using JNK buffer stock solution.
(§8) (2) Test compound solution preparation: 5× compound solution, including EDTA background, was prepared using assay buffer with 5% DMSO. The compound solution (10 μl/well) was added to a 384-well plate (Corning, Cat No. 3654).
(§9) (3) uJNK1,2, or 3 activation reaction preparation: uJNK activation solution was prepared using assay buffer (1.6 ng/ml MKK4, 1.6 ng/ml MKK7, 16 ng/ml uJNK, and 20 uM ATP final). The uJNK activation solution (35 μl/well) was added to the plate, the plate was shaken, and the reaction mixture was incubated with compound at 30° C. for 60 min. (4) c-Jun substrate solution preparation: 50 nM EPIW-1, c-Jun peptide, was prepared using assay buffer (15 nM final). The EPIW-1 solution (15 μl/well) was added to the plate, the plate was shaken and incubated at 30° C. for 60 min. (5) EDTA preparation: 30 mM EDTA was prepared using 0.5M EDTA stock and assay buffer. The EDTA (10 μl/well) was added to the plate to quench the enzyme reaction and the plate was shaken well. (6) Detection reagent preparation: Eu-73 and SA-XL stocks were thawed on ice. 4× Eu-73/SA-XL (2 nM Eu-73/9.4 nM SA-XL) were prepared using JNK detection buffer. The Eu-73/SA-XL solution (20 μl/well) was added to the plate. The plate was shaken and incubated at RT for 1 hr before reading the plate on LJL using ratiometric method named HTRF.

[2] = molecular target: JNK3 (Homo sapiens (Human), UniProt P53779); assay: JNK3 TR-FRET kinase assay (Example 14)
JNK3, sequence (P53779 whole entry, species assumed): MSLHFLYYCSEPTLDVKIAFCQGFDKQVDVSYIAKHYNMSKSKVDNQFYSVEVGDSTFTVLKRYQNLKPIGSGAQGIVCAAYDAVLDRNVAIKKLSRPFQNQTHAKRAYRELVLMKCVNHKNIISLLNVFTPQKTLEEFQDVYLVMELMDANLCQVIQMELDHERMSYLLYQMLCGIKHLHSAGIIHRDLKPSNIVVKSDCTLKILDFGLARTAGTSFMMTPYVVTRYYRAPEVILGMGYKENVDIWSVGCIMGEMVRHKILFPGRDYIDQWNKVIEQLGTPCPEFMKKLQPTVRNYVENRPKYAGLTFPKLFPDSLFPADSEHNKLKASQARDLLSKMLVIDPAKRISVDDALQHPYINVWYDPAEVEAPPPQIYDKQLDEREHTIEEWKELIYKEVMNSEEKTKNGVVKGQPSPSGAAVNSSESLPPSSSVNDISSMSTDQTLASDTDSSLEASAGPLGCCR
Procedure: as §1, §2, §3, §4, §5, §6, §7, §8, §9

[3] = molecular target: JNK2 (Homo sapiens (Human), UniProt P45984); assay: JNK2 TR-FRET kinase assay (Example 14)
JNK2, sequence (P45984 whole entry, species assumed): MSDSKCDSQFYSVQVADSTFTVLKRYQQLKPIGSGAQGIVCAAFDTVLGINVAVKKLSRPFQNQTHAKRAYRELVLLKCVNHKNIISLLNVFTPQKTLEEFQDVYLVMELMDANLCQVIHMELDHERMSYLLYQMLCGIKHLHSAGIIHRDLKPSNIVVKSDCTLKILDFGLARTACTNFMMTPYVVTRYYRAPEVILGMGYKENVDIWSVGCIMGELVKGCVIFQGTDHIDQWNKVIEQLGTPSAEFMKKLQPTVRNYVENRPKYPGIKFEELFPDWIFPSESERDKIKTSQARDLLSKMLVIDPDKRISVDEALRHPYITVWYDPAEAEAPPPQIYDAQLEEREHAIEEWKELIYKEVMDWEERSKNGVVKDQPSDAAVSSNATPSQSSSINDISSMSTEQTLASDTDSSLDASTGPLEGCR
Procedure: as §1, §2, §3, §4, §5, §6, §7, §8, §9

JNK1, sequence (P45983 other isoform, or with tags, fused parts or gaps isoform P45983-2, species assumed): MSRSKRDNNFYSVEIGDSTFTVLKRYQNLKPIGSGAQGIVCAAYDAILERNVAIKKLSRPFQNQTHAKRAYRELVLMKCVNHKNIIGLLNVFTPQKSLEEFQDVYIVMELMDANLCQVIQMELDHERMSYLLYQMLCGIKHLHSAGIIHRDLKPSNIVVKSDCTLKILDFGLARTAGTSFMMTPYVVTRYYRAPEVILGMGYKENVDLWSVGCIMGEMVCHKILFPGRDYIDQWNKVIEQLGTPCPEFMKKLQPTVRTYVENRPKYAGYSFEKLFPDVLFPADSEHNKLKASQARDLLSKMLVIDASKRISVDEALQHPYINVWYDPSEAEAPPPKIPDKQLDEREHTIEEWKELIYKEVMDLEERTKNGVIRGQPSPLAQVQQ

pIC50 [1]	pIC50 [2]	pIC50 [3]	Structure (SMILES)
> 7.00	> 7.00	> 7.00	C#Cc1ccc2c(ccc(=O)n2CC(=O)Nc2scc(Br)c2-c2ncn[nH]2)c1 [N-(4-bromo-3-(1H-1,2,4-triazol-5-yl)thiophen-2-yl)-2-(6-ethynyl-2-oxoquinolin-1(2H)-yl)acetamide]
> 7.00	> 7.00	> 7.00	O=C(Cc1c(F)ccc2ncccc12)Nc1scc(Br)c1-c1ncn[nH]1 [N-(4-bromo-3-(1H-1,2,4-triazol-5-yl)thiophen-2-yl)-2-(6-fluoroquinolin-5-yl)acetamide]
> 7.00	> 7.00	> 7.00	Cn1cnc(-c2c(Br)csc2NC(=O)CN2C(=O)CCc3ncccc32)n1 [N-(4-bromo-3-(1-methyl-1H-1,2,4-triazol-3-yl)thiophen-2-yl)-2-(2-oxo-3,4-dihydro-1,5-naphthyridin-1(2H)-yl)acetamide]
> 7.00	> 7.00	5.00 to 7.00	Cc1n[nH]c(-c2c(C)csc2NC(=O)Cc2cccc3ncccc23)n1 [N-(4-methyl-3-(3-methyl-1H-1,2,4-triazol-5-yl)thiophen-2-yl)-2-(quinolin-5-yl)acetamide]
< 5.00	< 5.00	< 4.30	Cc1nc(-c2sccc2NC(=O)CN2C(=O)CCc3ccccc32)c[nH]1 [N-(2-(2-methyl-1H-imidazol-4-yl)thiophen-3-yl)-2-(2-oxo-3,4-dihydroquinolin-1(2H)-yl)acetamide]
> 7.00	> 7.00	5.00 to 7.00	O=C(Cn1c(=O)ccc2cc(C(F)(F)F)ccc21)Nc1ccsc1-c1cscn1 [2-(2-oxo-6-(trifluoromethyl)quinolin-1(2H)-yl)-N-(2-(thiazol-4-yl)thiophen-3-yl)acetamide]
5.00 to 7.00	5.00 to 7.00	5.00 to 7.00	Cc1csc(-c2sccc2NC(=O)Cc2cccc3cnccc23)n1 [2-(isoquinolin-5-yl)-N-(2-(4-methylthiazol-2-yl)thiophen-3-yl)acetamide]
> 7.00	> 7.00	> 7.00	O=C(CN1C(=O)CCc2ncccc21)Nc1scc(Cl)c1-c1nc[nH]n1 [N-(4-chloro-3-(1H-1,2,4-triazol-3-yl)thiophen-2-yl)-2-(2-oxo-3,4-dihydro-1,5-naphthyridin-1(2H)-yl)acetamide]
5.00 to 7.00	5.00 to 7.00	5.00 to 7.00	COc1ccc(CC(=O)Nc2ccsc2-c2nc(C3CCCO3)n[nH]2)cc1 (stereo not drawn) [2-(4-methoxyphenyl)-N-(2-(3-(tetrahydrofuran-2-yl)-1H-1,2,4-triazol-5-yl)thiophen-3-yl)acetamide]
> 7.00	> 7.00	> 7.00	O=C(Cn1c(=O)ccn2nccc12)Nc1scc(Cl)c1-c1ncn[nH]1 [N-(4-chloro-3-(1H-1,2,4-triazol-5-yl)thiophen-2-yl)-2-(5-oxopyrazolo[1,5-a]pyrimidin-4(5H)-yl)acetamide]
5.00 to 7.00	5.00 to 7.00	5.00 to 7.00	COc1ccc(CC(=O)Nc2sccc2-c2noc(C)n2)cc1 [2-(4-methoxyphenyl)-N-(3-(5-methyl-1,2,4-oxadiazol-3-yl)thiophen-2-yl)acetamide]
> 7.00	> 7.00	> 7.00	O=C(Cc1cccc2ncccc12)Nc1scc(Cl)c1-c1ncn[nH]1 [N-(4-chloro-3-(1H-1,2,4-triazol-5-yl)thiophen-2-yl)-2-(quinolin-5-yl)acetamide]
> 7.00	> 7.00	> 7.00	N#Cc1csc(NC(=O)Cc2cccc3cnccc23)c1-c1ncn[nH]1 [N-(4-cyano-3-(1H-1,2,4-triazol-5-yl)thiophen-2-yl)-2-(isoquinolin-5-yl)acetamide]
< 5.00	< 5.00	< 5.00	COc1ccc(CC(=O)Nc2ccsc2-n2cc(C)cn2)cc1 [2-(4-methoxyphenyl)-N-(2-(4-methyl-1H-pyrazol-1-yl)thiophen-3-yl)acetamide]
5.00 to 7.00	5.00 to 7.00	5.00 to 7.00	Cc1noc(-c2c(C)csc2NC(=O)Cc2cccc3ccccc23)n1 [N-(4-methyl-3-(3-methyl-1,2,4-oxadiazol-5-yl)thiophen-2-yl)-2-(naphthalen-1-yl)acetamide]
> 7.00	5.00 to 7.00	5.00 to 7.00	O=C(Cc1cccc2nccn12)Nc1scc(Br)c1-c1ncn[nH]1 [N-(4-bromo-3-(1H-1,2,4-triazol-5-yl)thiophen-2-yl)-2-(imidazo[1,2-a]pyridin-5-yl)acetamide]
> 7.00	> 7.00	> 7.00	Cn1cnc(-c2c(Cl)csc2NC(=O)Cn2c(=O)ccn3nc(C(F)(F)F)cc23)n1 [N-(4-chloro-3-(1-methyl-1H-1,2,4-triazol-3-yl)thiophen-2-yl)-2-(5-oxo-2-(trifluoromethyl)pyrazolo[1,5-a]pyrimidin-4(5H)-yl)acetamide]
> 7.00	> 7.00	> 7.00	O=C(Cn1c(=O)ccc2cc(C(F)(F)F)ccc21)Nc1scc(Br)c1-c1ncn[nH]1 [N-(4-bromo-3-(1H-1,2,4-triazol-5-yl)thiophen-2-yl)-2-(2-oxo-6-(trifluoromethyl)quinolin-1(2H)-yl)acetamide]
< 5.00	5.00 to 7.00	< 4.30	O=C(Cc1cccc2ccccc12)Nc1ccsc1-n1ccnc1 [N-(2-(1H-imidazol-1-yl)thiophen-3-yl)2-(naphthalen-1-yl)acetamide]
> 7.00	> 7.00	5.00 to 7.00	O=C(Cc1cccc2ncc(C(F)(F)F)cc12)Nc1scc(Br)c1-c1nc[nH]n1 [N-(4-bromo-3-(1H-1,2,4-triazol-3-yl)thiophen-2-yl)-2-(3-(trifluoromethyl)quinolin-5-yl)acetamide]
> 7.00	> 7.00	> 7.00	CN(C)CCn1cnc(-c2c(Cl)csc2NC(=O)Cn2c(=O)ccc3cc(C(F)(F)F)ccc32)n1 [N-(4-chloro-3-(1-(2-(dimethylamino)ethyl)-1H-1,2,4-triazol-3-yl)thiophen-2-yl)-2-(2-oxo-6-(trifluoromethyl)quinolin-1(2H)-yl)acetamide]
> 7.00	> 7.00	> 7.00	O=C(Cn1c(=O)ccc2cc(Br)ccc21)Nc1scc(Br)c1-c1nc[nH]n1 [2-(6-bromo-2-oxoquinolin-1(2H)-yl)-N-(4-bromo-3-(1H-1,2,4-triazol-3-yl)thiophen-2-yl)acetamide]
< 5.00	< 5.00	< 4.30	COc1ccc(CC(=O)Nc2ccsc2-n2cncn2)cc1 [N-(2-(1H-1,2,4-triazol-1-yl)thiophen-3-yl)-2-(4-methoxyphenyl)acetamide]
< 4.30	< 4.30	< 4.30	COc1ccc(CC(=O)Nc2ccsc2-n2cnc(C)c2)cc1 [2-(4-methoxyphenyl)-N-(2-(4-methyl-1H-imidazol-1-yl)thiophen-3-yl)acetamide]
> 7.00	> 7.00	> 7.00	O=C(Cn1c(=O)ccn2nc(C(F)(F)F)cc12)Nc1scc(Br)c1-c1ncn[nH]1 [N-(4-bromo-3-(1H-1,2,4-triazol-5-yl)thiophen-2-yl)-2-(5-oxo-2-(trifluoromethyl)pyrazolo[1,5-a]pyrimidin-4(5H)-yl)acetamide]
